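Five compound concentrations were applied to cells in 96-well plates for 48 hours; endpoints were derived by simple linear interpolation of the resulting dose-response curve. TGI: concentration producing complete growth inhibition.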
Assays:
Assay in all cases: NCI-60 cell line screen, 48 h
[1] = tested on: SNB-75 CNS
[2] = tested on: SN12C renal
[3] = tested on: SR leukemia
[4] = tested on: SK-MEL-5 melanoma
[5] = tested on: HL-60(TB) leukemia
[6] = tested on: HOP-92 NSCLC
[7] = tested on: UACC-257 melanoma
[8] = tested on: HCC-2998 colon
[9] = tested on: MDA-N
[10] = tested on: MDA-MB-435

| SMILES | TGI [1] [µM] | TGI [2] [µM] | TGI [3] [µM] | TGI [4] [µM] | TGI [5] [µM] | TGI [6] [µM] | TGI [7] [µM] | TGI [8] [µM] | TGI [9] [µM] | TGI [10] [µM] |
| --- | --- | --- | --- | --- | --- | --- | --- | --- | --- | --- |
| C=CCONC(=O)c1ccc(Cl)cc1 | > 100 | > 100 | > 100 | > 100 | > 100 | > 100 | > 100 | > 100 |  |  |
| NCCCNCCCNCCCN |  | > 100 | 44.7 | > 100 | > 100 |  | > 100 | > 100 | > 100 | > 100 |
| NC(=O)OCC(COc1ccc(Cl)cc1)OC(=O)c1ccccc1Cl (stereo not given) | > 100 | 34 | 51.7 | 33.1 | 41.5 | 45.1 | 37.8 | 43.5 |  |  |
| C/C(CN1C(=O)c2ccccc2C1=O)=N\NS(=O)(=O)c1ccc(Br)cc1 | > 100 | > 100 |  | > 100 | > 100 | > 100 | > 100 | > 100 |  |  |
| CC#COP(=O)(OCC)OCC |  | > 100 | > 100 | > 100 | 60.6 |  | > 100 | > 100 |  |  |
| O=C(O)c1c[nH]c2c(Sc3ccccc3)nccc2c1=O | > 100 | > 100 |  | > 100 | > 100 | > 100 | > 100 |  | > 100 | > 100 |
| Oc1ccccc1/C=N/Nc1nnc2c3ccccc3c3ccccc3c2n1 | 84.4 | > 100 | > 100 | > 100 | > 100 | > 100 | 64.7 |  | > 100 | > 100 |
| CSC1=N[C@H](c2ccccc2)CS1 | > 100 | > 100 |  | > 100 |  |  | > 100 | > 100 | > 100 | > 100 |
| C[C@@]12C=CC3C/C(=N\C(N)=S)C=C(CCCC4OCCO4)[C@]3(CC1)C2 (stereo not given in full) | 66.3 | 30.8 | 60.7 | 24.8 |  | > 100 | 40.7 | 34.2 | 33.9 | 45.5 |
| NC(=S)NNC(=O)/C(=C/c1ccc(/C=C(\NC(=O)c2ccccc2)C(=O)NNC(N)=S)cc1)NC(=O)c1ccccc1 | 85 | > 100 | > 63 | > 100 | > 31.6 | > 100 | > 100 | > 100 |  |  |
| Cc1c2cnccc2c(C)c2c1[nH]c1ccc(O)cc12 | 8.09 | 7.35 | 2.88 | > 10 | 2.98 |  | > 10 | > 10 | > 10 | 8.73 |
| Cc1occc1C(=S)Nc1ccc(Cl)c(C(=O)OCC(F)(F)F)c1 | 49.4 | 41.4 |  | 30.9 | 65.6 | 44.1 | 55.9 | 35.1 | > 100 | 37.4 |
| C[C@H]1[C@H](C)N(Cc2ccccc2)P(=O)(C(O)/C=C/c2ccccc2)N1Cc1ccccc1 (stereo not given in full) | 17.9 | 8.75 | 20.5 | 8.7 |  | 19.7 | 14.6 | 15.5 | 13.6 | 8.79 |
| CC(=O)OCC(=O)[C@@]1(O)CC[C@H]2[C@@H]3CCC4=CC(=O)[C@H](C)C[C@]4(C)[C@H]3[C@@H](O)C[C@@]21C | > 100 | > 100 | > 100 | > 100 | > 100 | > 100 | > 100 | > 100 |  |  |
| O=C1CC(=O)NC(=NN2C(=O)CSC2c2ccc(Cl)c(Cl)c2)N1 (stereo not given) | > 100 | > 100 | > 100 | > 100 |  | > 100 | > 100 | > 100 | > 100 | > 100 |
| CC1=C/C(=N\OCC(=O)O)CC(c2ccc(C(C)C)cc2)C1 (stereo not given) |  | > 100 | > 100 | 34.1 | > 100 | > 100 | > 100 |  | > 100 | > 100 |
| O=C(O)C1C(C(=O)O)C2C(=O)C=CC1N2Cc1ccccc1 (stereo not given) | 6.97 | 5.47 |  | 17.2 | 4.31 | 24.6 | 11.6 | 7.71 | 11.4 | 13.4 |
| c1ccc(Nc2nnc(CSc3nc(-c4ccccc4)c(-c4ccccc4)[nH]3)s2)cc1 | 85.6 | 35 | 51.1 | 28.5 | 31.4 | 37.7 | 50 |  |  |  |
| CCOC(=O)NC(C(F)(F)F)(C(F)(F)F)P(=O)(OC(C)C)OC(C)C | > 100 | > 100 | > 100 | > 100 | > 100 |  | > 100 | > 100 | > 100 | > 100 |
| CC1C2CC(CC(=O)N2)C1(C)C (stereo not given) | > 100 | > 100 |  | > 100 | > 100 | > 100 | > 100 | > 100 | > 100 | > 100 |
| COc1cc(Br)c(OC)c2c(OC)cc(C)cc12 | > 100 | > 100 | 37.8 |  | > 100 |  | > 100 | > 100 |  | > 100 |
| COc1cc2c(/C=C3/C(=O)Nc4ccc(Cl)cc43)c(Cl)n(Cc3ccccc3)c2cc1C | 4.61 | 5.24 | 5.9 | 13.7 | 17.4 | 25.9 | > 100 |  |  | 6.21 |
| CSc1nc2ccccc2c(=O)n1/N=C1\C(=O)N(CN2CCCCC2)c2ccc(Cl)cc21 | 58.4 | > 100 |  | > 100 | 50.1 | > 100 | 54.2 |  | > 100 | > 100 |
| CCCCCCn1c(SCC)c2ccccc2c1-c1nc(F)nc(F)n1 | > 100 | > 100 | > 100 | > 100 | > 100 | > 100 | > 100 | > 100 |  |  |
